One block for each compound: values may come before it.
What was measured:
[1] = system: GH concentration in the plasma of male rat pups; experiment: In vivo GH concentration in the plasma of male rat pups; parameters: species or system rat (Sprague-Dawley); settings: rat pup plasma, killed 15 min later
Description: IV) Assaying In Vivo GH Concentration in the Plasma of Male Rat Pups
GH plasma concentrations of male rat pubs were assayed to characterize the modulation effect (antagonistic or agonistic) of the compounds of the invention being GHS receptor analogue ligands.
In principle, assaying in vivo GH concentration in rat plasma was performed according to Torsello et al. (Eur. J. Pharmacol. 1998, 360: 123-129).
Male Sprague-Dawley rat pups (Charles River, Calco, Italy) were separated on postnatal day seven from their mothers and randomly redistributed to the dams, so that each one nurtured ten to twelve pups. On postnatal day ten, the pups were again separated from their mothers.
The compounds to be tested were dissolved in solvent [DMSO (0.4% of total volume), distilled water (4% of total volume), brought to the final volume with physiological saline].
One hour after separation from their mothers, the pups were given isovolumetric amounts of the compounds to be tested (160 μg/kg body weight s.c.) at time −10 min and then administered with hexarelin (80 μg/kg body weight s.c.) or solvent at time 0 min before being killed 15 min later by decapitation. Trunk blood was collected, immediately centrifuged and plasma samples were stored at −20° C. until assayed for the determination of GH concentrations.
Plasma GH concentrations were measured using a rat growth hormone enzyme immunoassay kit (SPIbio, France, cat. no. 589601) according to the manufacturer's instructions. Values are expressed in terms of NIDDK rat-GH-RP2 standard (potency 2 IU/mg) as ng/mL of plasma
The limit of detection calculated as the concentration producing 15% displacement of initial tracer was 0.5 ng/ml; intra-assay and inter-assay coefficient of variation are 4% (n=24) and 14% (n=9).
In the following table 3 results obtained for selected compounds of the invention are presented.

[2] = system: young-adult male Sprague-Dawley rats; experiment: Feeding behavior (food intake) of young-adult male rats; type: in vivo, rat (Sprague-Dawley)
Description: V) Assaying the Feeding Behavior (Food Intake) of Young-Adult Male Rats
The impact of compounds of the invention being GHS receptor analogue ligands on the feeding behaviour, i.e. food intake, of young-adult male rats was assayed.
In principle, assaying the feeding behavior (food intake) of young-adult male rats was performed according to Torsello et al. (Eur. J. Pharmacol. 1998, 360: 123-129).
For the assay, young-adult male Sprague-Dawley rats (Charles River, Calco, Italy), weighing 200-250 g, were used.
Rats had 1 week of acclimation in individual home cages, and animal room conditions (22±2° C., 65% humidity, artificial light from 08.00 to 20.00 h). The following week, they were daily trained to mimic the experimental procedure. Rats maintained free access to dry pellets and tap water throughout the whole experimental period. At the end of training, rats were administered (around 10.00-11.00 a.m.) subcutaneously with the compounds to be tested (160 μg/kg body weight) and/or hexarelin (80 μg/kg body weight) and/or solvent [DMSO (0.4% of total volume), distilled water (4% of total volume), brought to the final volume with physiological saline].
Hexarelin was used to study the effects of the compounds to be tested on stimulated feeding behavior. Immediately after the injections, the animals were returned to their home cages, which contained a known amount of standard rat chow and ad libitum water. Every hour for the following 6 hours, the remaining food was carefully collected and weighed to the nearest 0.1 g. Food intake was normalized for the body weight of the rats and expressed as grams of food eaten per 100 g body weight of rats.
In the following table 4 results obtained for selected compounds of the invention are presented.

human GHS-R 1a = target: T1, human GHS-R 1a (Homo sapiens, UniProt Q92847); experiment: GHS-R 1a receptor-ligand binding assay (membrane preparations from transfected LLC PK-1 cells); settings: displacement of 125I-His9-ghrelin (60 pM); membranes of LLC PK-1 cells transfected with human GHS-R 1a; mean of at least two independent experiments in triplicates
T1 construct: expressed in transfected cells; host or cells: LLC PK-1 porcine renal epithelial cells (ECACC No. 86121112), isolated plasma membranes
T1 sequence (Q92847 whole entry): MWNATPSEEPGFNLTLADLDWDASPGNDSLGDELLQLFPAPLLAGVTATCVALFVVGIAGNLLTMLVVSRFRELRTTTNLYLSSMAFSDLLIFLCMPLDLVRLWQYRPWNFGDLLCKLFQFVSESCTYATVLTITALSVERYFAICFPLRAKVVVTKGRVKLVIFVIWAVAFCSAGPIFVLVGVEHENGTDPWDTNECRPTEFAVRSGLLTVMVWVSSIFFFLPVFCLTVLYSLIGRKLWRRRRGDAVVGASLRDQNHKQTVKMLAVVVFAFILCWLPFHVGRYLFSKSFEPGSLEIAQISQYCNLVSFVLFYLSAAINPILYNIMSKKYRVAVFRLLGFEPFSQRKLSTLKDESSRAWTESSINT
Method in brief: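 Membranes from LLC PK-1 cells expressing human GHS-R 1a incubated 60 min at 25 °C in 50 mM Tris pH 7.3, 5 mM MgCl2, 2.5 mM EDTA, bacitracin with 60 pM 125I-ghrelin and competitor; nonspecific binding with 10^-6 M ghrelin; filtration read-out.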

[3] = target: T2, Motilin-Receptor 1a (MTL-R1a) (Homo sapiens, UniProt O43193); experiment: Motilin receptor-ligand binding assay (human recombinant HEK-293 cells); settings: 0.1 nM [125I] Motilin, read-out: MTL-R 1a IC50
T2 construct: expressed in transfected cells; host or cells: HEK-293 cells
T2 sequence (O43193 whole entry): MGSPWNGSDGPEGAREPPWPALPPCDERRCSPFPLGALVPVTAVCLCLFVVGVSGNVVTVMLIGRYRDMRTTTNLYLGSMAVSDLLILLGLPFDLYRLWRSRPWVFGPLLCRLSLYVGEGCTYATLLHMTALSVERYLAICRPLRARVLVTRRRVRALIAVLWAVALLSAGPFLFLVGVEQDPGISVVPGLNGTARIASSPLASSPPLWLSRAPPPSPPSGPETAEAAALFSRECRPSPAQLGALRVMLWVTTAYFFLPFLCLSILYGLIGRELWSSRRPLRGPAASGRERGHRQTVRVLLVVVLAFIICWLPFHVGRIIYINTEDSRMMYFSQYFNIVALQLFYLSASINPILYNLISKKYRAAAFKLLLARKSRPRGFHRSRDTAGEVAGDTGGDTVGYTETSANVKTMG
Description: VI) Motilin Receptor-Ligand Binding Assay (Using Human Recombinant HEK-293 Cells)
Motilin Receptor binding/affinity studies were performed as described by Feighner S D et al. (Science 1999, 284: 2184-2188). The assays were run under the following conditions:
Compounds of the invention were tested in concentrations comprising 0.01 μM, 0.1 μM, 1 μM and 10 μM.
IC50 values were determined by a non-linear, least square regression analysis using Data Analysis Toolbox (MDL Information Systems, USA).
In the following table 5 results obtained for selected compounds of the invention are presented.

[4] = system: rats with adjuvant induced arthritis; experiment: Anti-cachectic effects in an adjuvant-induced arthritis model system; type: in vivo, rat; settings: arthritic rats, 0.1 μg/kg/day s.c.
Source text: VII) Study of Anti-Cachectic Effects in an Adjuvant-Induced Arthritis Model System
The effectiveness of compounds of the invention in the treatment of cachexia was investigated according to Ibanez de Caceres I et al. (J Endocrinol. 2000, 165(3): 537-544) using a cachexia model system (Roubenoff R et al., Arthritis Rheum. 1997, 40(3): 534-539).

[5] = compound 160 μg/kg s.c. at -10 min + hexarelin 80 μg/kg s.c. at 0 min
[6] = compound alone 160 μg/kg body weight s.c. at -10 min, solvent at 0 min
[7] = compound 160 μg/kg s.c. + hexarelin 80 μg/kg s.c.
[8] = compound alone, 160 μg/kg body weight s.c.

Compound: COc1ccc(Cn2c(CCc3ccccc3)nnc2[C@@H](Cc2c[nH]c3ccccc23)NC(=O)c2ccccn2)c(OC)c1 [compound 64, (R)—N-(1-(4-(2,4-dimethoxybenzyl)-5-phenethyl-4H-1,2,4-triazol-3-yl)-2-(1H-indol-3-yl)ethyl)picolinamide]
GH concentration [1, 5]: 138.394 ± 14.580 ng/mL
GH concentration [1, 6]: 13.056 ± 2.169 ng/mL
Cumulative food intake (after 2 hours) [2, 7]: 0.012 ± 0.004 g food/100 g body weight
Cumulative food intake (after 6 hours) [2, 7]: 0.021 ± 0.007 g food/100 g body weight
Cumulative food intake (after 2 hours) [2, 8]: 0.012 ± 0.008 g food/100 g body weight
Cumulative food intake (after 6 hours) [2, 8]: 0.039 ± 0.011 g food/100 g body weight
IC50 (human GHS-R 1a): 0.0011 µM
IC50 [3]: 1.39 µM

Compound: CC(C)(N)C(=O)N[C@H](Cc1c[nH]c2ccccc12)c1nnc(CCCc2c[nH]c3ccccc23)n1Cc1ccccc1 [compound 9, (R)—N-(1-(5-(3-(1H-indol-3-yl)propyl)-4-benzyl-4H-1,2,4-triazol-3-yl)-2-(1H-indol-3-yl)ethyl)-2-amino-2-methylpropanamide]
GH concentration [1, 5]: 183.562 ± 16.729 ng/mL
GH concentration [1, 6]: 13.016 ± 1.960 ng/mL
Cumulative food intake (after 2 hours) [2, 7]: 0.0104 ± 0.0032 g food/100 g body weight
Cumulative food intake (after 6 hours) [2, 7]: 0.0231 ± 0.0032 g food/100 g body weight
Cumulative food intake (after 2 hours) [2, 8]: 0.01 ± 0 g food/100 g body weight
Cumulative food intake (after 6 hours) [2, 8]: 0.01 ± 0 g food/100 g body weight
IC50 (human GHS-R 1a): 0.046 µM

Compound: COc1ccc(Cn2c(CCc3c[nH]c4ccccc34)nnc2[C@@H](Cc2c[nH]c3ccccc23)NC(=O)C(C)(C)N)c(OC)c1 [compound 1, (R)—N-(1-(5-(2-(1H-indol-3-yl)ethyl)-4-(2,4-dimethoxybenzyl)-4H-1,2,4-triazol-3-yl)-2-(1H-indol-3-yl)ethyl)-2-amino-2-methylpropanamide]
GH concentration [1, 5]: 80.22 ± 18.66 ng/mL
Cumulative food intake (after 2 hours) [2, 7]: 0.06 ± 0.02 g food/100 g body weight
Cumulative food intake (after 6 hours) [2, 7]: 0.33 ± 0.21 g food/100 g body weight
Cumulative food intake (after 2 hours) [2, 8]: 0.02 ± 0.002 g food/100 g body weight
Cumulative food intake (after 6 hours) [2, 8]: 0.06 ± 0.03 g food/100 g body weight
IC50 (human GHS-R 1a): 0.16 µM

Compound: COc1ccc(Cn2c(CCc3c[nH]c4ccccc34)nnc2[C@@H](Cc2c[nH]c3ccccc23)NC(=O)c2cnccn2)c(OC)c1 [compound 71, (R)—N-(1-(5-(2-(1H-indol-3-yl)ethyl)-4-(2,4-dimethoxybenzyl)-4H-1,2,4-triazol-3-yl)-2-(1H-indol-3-yl)ethyl)pyrazine-2-carboxamide]
GH concentration [1, 5]: 173.611 ± 18.444 ng/mL
GH concentration [1, 6]: 15.326 ± 1.355 ng/mL
Cumulative food intake (after 2 hours) [2, 7]: 0.117 ± 0.074 g food/100 g body weight
Cumulative food intake (after 6 hours) [2, 7]: 0.20 ± 0.01 g food/100 g body weight
Cumulative food intake (after 2 hours) [2, 8]: 0.522 ± 0.283 g food/100 g body weight
Cumulative food intake (after 6 hours) [2, 8]: 0.53 ± 0.28 g food/100 g body weight
IC50 (human GHS-R 1a): 0.019 µM

Now from value to compound, other results behind:

IC50 (human GHS-R 1a): 0.014 µM
Compound: COc1ccc(Cn2c(CCc3ccccc3)nnc2[C@@H](Cc2c[nH]c3ccccc23)NC(=O)C(C)(C)N)cc1 [compound 20, (R)—N-(1-(4-(4-methoxybenzyl)-5-phenethyl-4H-1,2,4-triazol-3-yl)-2-(1H-indol-3-yl)ethyl)-2-amino-2-methylpropanamide]
GH concentration [1, 5]: 220.51 ± 15.52 ng/mL
GH concentration [1, 6]: 5.27 ± 0.59 ng/mL
Cumulative food intake (after 2 hours) [2, 7]: 0.53 ± 0.21 g food/100 g body weight
Cumulative food intake (after 6 hours) [2, 7]: 0.63 ± 0.19 g food/100 g body weight
Cumulative food intake (after 2 hours) [2, 8]: 0.01 g food/100 g body weight
Cumulative food intake (after 6 hours) [2, 8]: 0.2 ± 0.19 g food/100 g body weight

IC50 (human GHS-R 1a): 0.0006 µM
IC50 [3]: 1.61 µM
Compound: COc1ccc(Cn2c(CCc3ccccc3)nnc2[C@@H](Cc2c[nH]c3ccccc23)NC(=O)C2CCNCC2)cc1 [compound 44, (R)—N-(1-(4-(4-methoxybenzyl)-5-phenethyl-4H-1,2,4-triazol-3-yl)-2-(1H-indol-3-yl)ethyl)piperidine-4-carboxamide]
GH concentration [1, 5]: 100.52 ± 12.112 ng/mL
GH concentration [1, 6]: 87.520 ± 15.066 ng/mL
Cumulative food intake (after 2 hours) [2, 7]: 1.2667 ± 0.1319 g food/100 g body weight
Cumulative food intake (after 6 hours) [2, 7]: 1.4033 ± 0.1177 g food/100 g body weight
Cumulative food intake (after 2 hours) [2, 8]: 0.43 ± 0.0721 g food/100 g body weight
Cumulative food intake (after 6 hours) [2, 8]: 0.7075 ± 0.1471 g food/100 g body weight
Body weight change, Day 3 ([4]; Day 3, mean of 6 animals): −5.32 gram
Body weight change, Day 6 ([4]; Day 6, mean of 6 animals): 2.98 gram
Body weight change, Day 10 ([4]; Day 10, mean of 6 animals): 14.92 gram
Body weight change, Day 13 ([4]; Day 13, mean of 6 animals): 19.08 gram
Body weight change, Day 15 ([4]; Day 15, mean of 6 animals): 7.05 gram
Body weight change, Day 17 ([4]; Day 17, mean of 6 animals): 1.47 gram

IC50 (human GHS-R 1a): 0.012 µM
Compound: COc1ccc(Cn2c(CCCc3ccccc3)nnc2[C@@H](Cc2c[nH]c3ccccc23)NC(=O)C(C)(C)N)cc1 [compound 22, (R)—N-(1-(4-(4-methoxybenzyl)-5-(3-phenylpropyl)-4H-1,2,4-triazol-3-yl)-2-(1H-indol-3-yl)ethyl)-2-amino-2-methylpropanamide]
GH concentration [1, 5]: 239.91 ± 19.75 ng/mL
GH concentration [1, 6]: 4.88 ± 0.33 ng/mL
Cumulative food intake (after 2 hours) [2, 7]: 0.67 ± 0.12 g food/100 g body weight
Cumulative food intake (after 6 hours) [2, 7]: 0.86 ± 0.18 g food/100 g body weight
Cumulative food intake (after 2 hours) [2, 8]: 0.01 g food/100 g body weight
Cumulative food intake (after 6 hours) [2, 8]: 0.44 ± 0.2 g food/100 g body weight

Source: patent US8710089B2, “Triazole derivatives as ghrelin analogue ligands of growth hormone secretagogue receptors” (Zentaris GmbH, priority 2005, dated 2014)
